Reference: publication PMC8652888, “Angiogenesis, Anti-Tumor, and Anti-Metastatic Activity of Novel α-Substituted Hetero-Aromatic Chalcone Hybrids as Inhibitors of Microtubule Polymerization” (Frontiers in Chemistry, 2021)
Where “and” joins values, the source holds several entries; their conditions need not be identical. Equal values may be shown once. Read-outs that look alike come from different tables or passages of the source.

Legend:
HUVECs [1] = experiment: Tube formation assay; type: cell-based, human; settings: 1, 5, 25 μM, 6–8 h
Method: HUVECs (human umbilical vein endothelial cells) grown on Matrigel were commonly used as a tube formation model and also a widely studied human endothelial cell type in angiogenesis, for their ability to alter their shape to resemble capillaries ([Aranda and Owen, 2009]). […] We therefore examined the effects of 7m on HUVEC tube formation to evaluate its potential effect on angiogenesis.
The HUVECs were seeded in 96-well plates and cultured for 24 h, and then incubated with 1, 5, and 25 μM 7m. The EC Matrigel matrix was thawed overnight at 4°C. The HUVECs, suspended in F12K, were seeded in a 96-well culture plate at a cell density of 10,000 cells/well after 45 min of Matrigel polymerization at 37°C. Then they were treated with different concentrations of 7m or carrier at 37°C for 6–8 h. Then the morphological changes of the formed cells and tubes under an inverted microscope were observed, and pictures were taken.

[2] = system: intersegmental vessel (ISV) development, Tg (flk: EGFP) embryos; experiment: Anti-angiogenic effect on zebrafish embryos; type: in vivo
From the text: Zebrafish embryo is a powerful model to study human diseases, and the transgenic zebrafish labeled with green fluorescent protein (GFP) in endothelial cells are always used to analyze angiogenesis activity in vivo ([Rocke et al., 2009]). Accordingly, we treated the transgenic Tg (flk: EGFP) embryos with different doses of 7m (0.5, 1, 2.5, 5 μΜ), and 30 hpf zebrafish was imaged by fluorescent microscopy to examine the effect on intersegmental vessel (ISV) development. […] When the concentration of 7m was elevated to 2.5 μΜ, the […] effect was more pronounced as evidenced by the 3.5- to 4-fold reduction in the number of SIVs.
The transgenic zebrafish Tg (flk: EGFP) embryos were paired normally and collected into a six-well plate (n = 30/well), then 1 ml of aquaculture water (0.2 g/L distilled water instant sea salt) was added and were raised at 28.5°C. When the zebrafish embryos developed to 12 hpf, the indicated concentrations of 7m were added, and 30 embryos were selected for each concentration gradient and incubated at 28.5°C to 30 hpf. At 30 hpf, the zebrafish embryos were imaged and photographed under a fluorescence microscope to observe the growth of blood vessels in the body, and the number of intersegmental blood vessels (ISV) was recorded.

MCF-7 cells [3] = experiment: Wound healing assay; type: cell-based, human; settings: 48 h
Method: In order to evaluate whether 7m could suppress migration and invasion, the MCF-7 cell culture was performed by wound healing and Transwell Matrigel assay, respectively.
(§1) MCF-7 cells and HUVECs cells were grown in 24-well plates at a density of 1 × 10^6 cells per well for 24 h. Scratches were made in confluent monolayers by […] pipette tips. The media containing different concentrations of 7m were added to the Petri dishes. […] The migration distance of cells migrated to the wound area was measured manually.

tubulin = experiment: Tubulin polymerization in vitro (fluorescence); type: biochemical; settings: 37°C; read-out: IC50, inhibition of tubulin polymerization
Method: Data are presented as the mean ± SD from three independent experiments. **p < 0.01 vs. the vehicle control.
An in vitro assay was performed to monitor the time-dependent polymerization of tubulin into microtubules. The 96-well cell culture plate was incubated at 37°C for 10 min, and test compounds and reference compounds were prepared with a 10× analyte stock solution. Five microliters of 10× analyte stock solution was added to a 96-well plate, and the microplate reader was heated at 37°C for 1 min. Immediately 85 μl of Tubulin Stock was drawn and mixed with the above mixture to prepare the tubulin reaction solution, and 50 μl of the tubulin reaction solution was to each well. The multifunctional microplate reader measured the absorbance, and the measured fluorescence value represents the level of tubulin in the polymerized state in the reaction solution.

MCF-7 cells [4] = experiment: Cell cycle analysis, flow cytometry with PI staining; type: cell-based, human; settings: for G2/M cells: 24 h; for G0/G1, single runs / G0/G1 AVERAGE / G2/M, single runs / S AVERAGE / S, single runs / G2/M AVERAGE: flowjo raw data
Method: It is known that tubulin inhibitors block the cell cycle in the G2/M phase because of microtubule depolymerization and cytoskeleton disruption. Therefore, the effects of 7m on cell cycle progression of MCF-7 cells were analyzed by flow cytometry with PI staining. MCF-7 cells were treated with different concentrations (0, 100, 200, and 400 nM) of compound 7m for 24 h and 200 nM 7m at different times (0, 6, 12, and 24 h), respectively. […] When the concentration was increased to 200 and 400 nM, cells of 47% and 56% G2/M phase arrest were observed, respectively. Similarly, this phenomenon occurred after treatment with 200 nM 7m from 0 to 24 h.
MCF-7 cells were seeded into six-well plates (5 × 10^5 cells/well) and incubated at 37°C in a humidified 5% CO2 incubator for 24 h, and then treated with or without compound 7m at indicated concentrations (100, 200, 400 nM). The collected cells were fixed by adding 70% of ethanol at −20°C for 12 h. The cells were then washed with PBS, incubated with […] of RNase at 37°C for 30 min, and stained with […] of propidium iodide for 15 min, and finally subjected to flow cytometry.

HUVECs [5] = experiment: Wound healing assay; type: cell-based, human; settings: 1, 5, 25 μΜ, 48 h
Method: A wound healing assay was, thus, performed to evaluate the capacity of 7m to inhibit cell motility. […] Then the invasion inhibitory activities of 7m were further detected using Transwell assay with HUVECs cells treated with 0, 1, 5, and 25 μΜ of 7m. In this assay, […] were seeded into upper chambers which were pre-coated with Matrigel matrix in order to evaluate the cellular invasion.
as §1

normal liver LO2 cells = experiment: Growth inhibition of normal cells; type: cell-based, human
MCF-7 = experiment: Antiproliferative activity, SRB assay; type: cell-based, human;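 further: proliferation of MCF7 cells quantified by sulforhodamine B staining, with optical density read at 560 nm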
Method: The synthesized compounds were first evaluated for their cytotoxic effect on MCF-7 (human breast adenocarcinoma), U937 (histiocytic lymphoma cancer), HepG2 (human liver cancer) cells, and MGC-803 (human gastric cancer) using the SRB and CCK-8 assay.
The primary tumor cells were purchased from a professional biomedical company. First, the primary tumor cells were incubated in a cell culture incubator at 37°C and 5% CO2. After the cell fusion reached 85%–95%, subculture was performed, and the tumor cells obtained at this time were used for subsequent related experiments. The CCK-8 method was used to inhibit the proliferation of U937 tumor cells, and the SRB method was used to inhibit the proliferation of MCF7 and HepG2 tumor cells.
Cells were distributed into 96-well plates with a density of 3 × 10^3–4 × 10^3 cells per well and incubated for 24 h in a 5% CO2 incubator at 37°C, followed by treatment with study compounds at different concentrations at 37°C for 72 h. One hundred microliters of 10% (w/v) trichloroacetic acid was added to each well, fixed at 4°C for 30 min, and dried at 65°C. Then 100 μl of 0.4% SRB was added to each well and stained on a shaker for 20 min at room temperature. The excess dye solution was washed with newly prepared 1% glacial acetic acid and dried at 65°C. One hundred fifty microliters of 10 mM unbuffered Trisbase was added to each well of the plate and shaken for 5 min to dissolve the dye. The microplate reader measured the optical density (OD) at a wavelength of 560 nm.

For “3-(benzofuran-6-yl)-2-methyl-1-(3,4,5-trimethoxyphenyl)prop-2-en-1-one [Compound 7m]”, the “width and length of tubule-like network formation” value (HUVECs [1]) was “reduced in a concentration-dependent manner”, the “number and length of SIVs vs vehicle control” value ([2]; 0.5 and 1 μΜ, 30 hpf) was “slightly reduced” and the ISVs formations ([2]; doses ≥5 μM) was “seriously impaired”. For the same substance, the “developmental toxicity in embryos” value ([2]; doses ≥5 μM) was “developmental defects were observed”, the “wound healing of MCF-7 cells (migration)” value (MCF-7 cells [3]) was “significantly inhibited the wound healing” and the IC50 (tubulin) was 12.2 µM. The G2/M cells (MCF-7 cells [4]; 100 nM) was 26%, the “G0/G1, single runs” value (MCF-7 cells [4]; 100nM) was 61.76 and 47.12 and the “G0/G1 AVERAGE” value (MCF-7 cells [4]; 100nM) was 54.44. The “G2/M, single runs” value (MCF-7 cells [4]; 100nM) was 15.14 and 28.34, the “S AVERAGE” value (MCF-7 cells [4]; 100nM) was 23.82 and the “S, single runs” value (MCF-7 cells [4]; 100nM) was 23.1 and 24.54. For the same substance, the “G0/G1, single runs” value (MCF-7 cells [4]; 200nM dose series) was 40.1 and 25.72, the “G0/G1 AVERAGE” value (MCF-7 cells [4]; 200nM dose series) was 32.91 and the “G2/M, single runs” value (MCF-7 cells [4]; 200nM dose series) was 40.78 and 56.03. The “S AVERAGE” value (MCF-7 cells [4]; 200nM dose series) was 18.685, the “S, single runs” value (MCF-7 cells [4]; 200nM dose series) was 19.12 and 18.25 and the “G0/G1, single runs” value (MCF-7 cells [4]; 200nM, 6h) was 55.81 and 61.73. The “G0/G1 AVERAGE” value (MCF-7 cells [4]; 200nM, 6h) was 58.77, the “G2/M AVERAGE” value (MCF-7 cells [4]; 200nM, 6h) was 29.28 and the “G2/M, single runs” value (MCF-7 cells [4]; 200nM, 6h) was 36.18 and 22.38. The “S AVERAGE” value (MCF-7 cells [4]; 200nM, 6h) was 15.51, the “G0/G1, single runs” value (MCF-7 cells [4]; 200nM, 12h) was 34.65 and 32.01 and the “G0/G1 AVERAGE” value (MCF-7 cells [4]; 200nM, 12h) was 33.33. For the same substance, the “G2/M AVERAGE” value (MCF-7 cells [4]; 200nM, 12h) was 41.805, the “G2/M, single runs” value (MCF-7 cells [4]; 200nM, 12h) was 44.73 and 38.88 and the “S AVERAGE” value (MCF-7 cells [4]; 200nM, 12h) was 25.405. For the same substance, the “S, single runs” value (MCF-7 cells [4]; 200nM, 12h) was 23.93 and 26.88, the G2/M cells (MCF-7 cells [4]; 200 nM, dose series (Fig 6A)) was 47% and the “G0/G1, single runs” value (MCF-7 cells [4]; 200nM, 24h) was 6.61 and 3.51. The “G0/G1 AVERAGE” value (MCF-7 cells [4]; 200nM, 24h) was 5.06, the “G2/M AVERAGE” value (MCF-7 cells [4]; 200nM, 24h) was 91.725 and the “G2/M, single runs” value (MCF-7 cells [4]; 200nM, 24h) was 93.1 and 90.35. For the same substance, the “S AVERAGE” value (MCF-7 cells [4]; 200nM, 24h) was 5.79, the “G0/G1, single runs” value (MCF-7 cells [4]; 400nM) was 16.1 and 15.39 and the “G0/G1 AVERAGE” value (MCF-7 cells [4]; 400nM) was 15.745. The “G2/M AVERAGE” value (MCF-7 cells [4]; 400nM) was 67.3, the “G2/M, single runs” value (MCF-7 cells [4]; 400nM) was 66.98 and 67.62 and the “S AVERAGE” value (MCF-7 cells [4]; 400nM) was 16.955. For the same substance, the “S, single runs” value (MCF-7 cells [4]; 400nM) was 16.92 and 16.99, the “closure of wound scratching” value (HUVECs [5]) was “obviously decreased the closure of wound scratching” and the Selectivity ratio (normal liver LO2 cells; (IC50 human normal cells LO2)/(IC50 MCF7)) was 4.9. The IC50 (normal liver LO2 cells; three single determinations, read-out: L02 (raw data of table 3, IC50)) was 0.885 µM and 0.871 µM and 0.914 µM, the IC50 (normal liver LO2 cells; triplicate, read-out: IC50 ± SD, LO2) was 0.89 ± 0.014 µM and the IC50 (MCF-7; 72 h, triplicate, mean ± SD, read-out: IC50 ± SD, MCF-7) was 0.183 ± 0.032 µM. The IC50 (MCF-7; Table 3, triplicate, read-out: IC50 ± SD, MCF7) was 0.183 ± 0.032 µM and the IC50 (MCF-7; three single determinations, read-out: MCF-7 (raw data of table 3, IC50)) was 0.146 µM and 0.223 µM and 0.18 µM.
